From the CheMixHub ionic liquid set

Assay: xn = mol fraction of the nth substance listed

CC[n+]1ccn(C)c1.F[P-](F)(F)(F)(F)F + CC(C)[C@H](N)C(=O)O + O
100 kPa
Details | electrical conductivity, 298.15 K [S/m] | electrical conductivity, 303.15 K [S/m] | electrical conductivity, 308.15 K [S/m] | viscosity, 298.15 K [mPa·s] | viscosity, 303.15 K [mPa·s] | viscosity, 308.15 K [mPa·s]
x2 = 0.0001802, x1 = 1.802e-05 | 0.0115 | 0.0132 | 0.0158 | 0.924 | 0.855 | 0.783
x2 = 0.0001803, x1 = 5.405e-05 | 0.0309 | 0.0338 | 0.0369 | 0.939 | 0.861 | 0.788
x2 = 0.0001804, x1 = 9.008e-05 | 0.0452 | 0.0507 | 0.0552 | 0.954 | 0.865 | 0.792
x2 = 0.0004522, x1 = 1.801e-05 | 0.0121 | 0.0136 | 0.0156 | 0.93 | 0.862 | 0.79
x2 = 0.0004524, x1 = 5.403e-05 | 0.0301 | 0.0329 | 0.0366 | 0.946 | 0.868 | 0.795
x2 = 0.0004526, x1 = 9.005e-05 | 0.046 | 0.0507 | 0.0551 | 0.963 | 0.876 | 0.801
x2 = 0.0007258, x1 = 1.801e-05 | 0.0124 | 0.0141 | 0.016 | 0.936 | 0.869 | 0.797
x2 = 0.0007262, x1 = 5.402e-05 | 0.0308 | 0.0336 | 0.0361 | 0.953 | 0.875 | 0.802
x2 = 0.0007265, x1 = 9.003e-05 | 0.0494 | 0.0548 | 0.0593 | 0.97 | 0.884 | 0.808
x2 = 0.0009976, x1 = 1.8e-05 | 0.0136 | 0.015 | 0.0177 | 0.942 | 0.876 | 0.803
x2 = 0.000998, x1 = 5.4e-05 | 0.0304 | 0.0333 | 0.0354 | 0.96 | 0.883 | 0.811
x2 = 0.0009985, x1 = 9e-05 | 0.0457 | 0.051 | 0.0553 | 0.979 | 0.893 | 0.818
x2 = 0.001273, x1 = 1.8e-05 | 0.0147 | 0.0167 | 0.0199 | 0.948 | 0.882 | 0.811
x2 = 0.001273, x1 = 5.399e-05 | 0.0323 | 0.0341 | 0.0377 | 0.969 | 0.89 | 0.819
x2 = 0.001274, x1 = 8.998e-05 | 0.0487 | 0.0538 | 0.0594 | 0.988 | 0.899 | 0.826
x2 = 0.001546, x1 = 1.799e-05 | 0.0161 | 0.0182 | 0.0218 | 0.954 | 0.888 | 0.818
x2 = 0.001547, x1 = 5.397e-05 | 0.0327 | 0.0343 | 0.0383 | 0.976 | 0.897 | 0.827
x2 = 0.001547, x1 = 8.995e-05 | 0.0455 | 0.0512 | 0.0549 | 0.996 | 0.908 | 0.833

CCCCCC[n+]1ccn(C)c1.O=[N+]([O-])[O-] + CCC(C)O
viscosity [mPa·s], 100 kPa
Details | 293.15 K | 298.15 K | 303.15 K | 308.15 K | 313.15 K | 318.15 K | 323.15 K
x1 = 0.0819 | 7.63 | 5.55 | 4.2 | 3.3 | 2.59 | 2.14 | 1.79
x1 = 0.1591 | 14.93 | 10.31 | 7.2 | 5.2 | 3.92 | 3.18 | 2.52
x1 = 0.2414 | 28.5 | 19.3 | 13.16 | 9.1 | 6.75 | 5.3 | 3.9
x1 = 0.3517 | 54.2 | 37.9 | 27.6 | 18 | 13.16 | 10.35 | 7.8
x1 = 0.4412 | 87.8 | 63.7 | 46.7 | 30.6 | 21.5 | 16.77 | 12.8
x1 = 0.5591 | 156.2 | 117.1 | 84.5 | 56.4 | 38 | 29.4 | 23
x1 = 0.6518 | 227 | 172.4 | 117.1 | 81.3 | 58.7 | 43 | 33.6
x1 = 0.7392 | 322 | 238 | 158.7 | 113.3 | 84.5 | 60.9 | 47.3
x1 = 0.8516 | 475 | 342 | 230 | 168.2 | 124.1 | 91.6 | 71.1
x1 = 0.9395 | 641 | 451 | 304 | 218 | 159.2 | 119.8 | 94.4
x1 = 1 | 804 | 545 | 369 | 258 | 186 | 140.2 | 110.9

CCCC[n+]1ccn(C)c1.O=[N+]([O-])[O-] + CCC(C)O
100 kPa
Details | viscosity [mPa·s]
293.15 K, x1 = 0.0813 | 5.4
293.15 K, x1 = 0.1595 | 7.3
298.15 K, x1 = 0.1595 | 6.1
298.15 K, x1 = 0.2402 | 8.4
298.15 K, x1 = 0.7398 | 52
298.15 K, x1 = 0.8502 | 79
303.15 K, x1 = 0.1595 | 5.3
303.15 K, x1 = 0.2402 | 7.2
303.15 K, x1 = 0.8502 | 62
308.15 K, x1 = 0.2402 | 6.3
308.15 K, x1 = 0.35 | 9.4
308.15 K, x1 = 0.9399 | 71
308.15 K, x1 = 1 | 97
313.15 K, x1 = 0.2402 | 5.5
313.15 K, x1 = 0.35 | 8.2
313.15 K, x1 = 0.9399 | 57
313.15 K, x1 = 1 | 75
318.15 K, x1 = 0.35 | 7.2
318.15 K, x1 = 0.4403 | 9.7
318.15 K, x1 = 1 | 56
323.15 K, x1 = 0.35 | 6.3
323.15 K, x1 = 0.4403 | 8.5

CCOS(=O)(=O)[O-].CC[n+]1ccn(C)c1 + CCC(C)O
101 kPa
Details | viscosity [mPa·s]
298.15 K, x1 = 0.2027 | 6.91
298.15 K, x1 = 0.6944 | 39.6
298.15 K, x1 = 0.7957 | 54.2
303.15 K, x1 = 0.2027 | 6.81
303.15 K, x1 = 0.4906 | 17.37
303.15 K, x1 = 0.8916 | 57.3
308.15 K, x1 = 0.3936 | 9.98
308.15 K, x1 = 0.8916 | 46.8
313.15 K, x1 = 0.2027 | 4.59
313.15 K, x1 = 0.3936 | 9.48
313.15 K, x1 = 0.5916 | 17.67
313.15 K, x1 = 1 | 49.4
318.15 K, x1 = 0.2027 | 4.03
323.15 K, x1 = 0.2937 | 5
